The numbers were not newly measured in patent EP2179733A1, “PHARMACEUTICAL COMPOSITION COMBINING AN ANTIMICROBIAL AGENT AND A SELECTIVE ENKEPHALINASE ENZYME INHIBITOR, WHICH CAN BE USED TO CONTROL AND TREAT ACUTE BACTERIAL DIARRHOEA” (World Trade Import-Export, WTIE A.G., priority 2007, dated 2009), which cites them from elsewhere.

The target of one data set is T1, plasmatic enkephalinase (Homo sapiens, UniProt P08473).
T1 construct: from tissue; host or cells: plasma after oral administration of Racecadotril
T1 sequence (P08473 whole entry): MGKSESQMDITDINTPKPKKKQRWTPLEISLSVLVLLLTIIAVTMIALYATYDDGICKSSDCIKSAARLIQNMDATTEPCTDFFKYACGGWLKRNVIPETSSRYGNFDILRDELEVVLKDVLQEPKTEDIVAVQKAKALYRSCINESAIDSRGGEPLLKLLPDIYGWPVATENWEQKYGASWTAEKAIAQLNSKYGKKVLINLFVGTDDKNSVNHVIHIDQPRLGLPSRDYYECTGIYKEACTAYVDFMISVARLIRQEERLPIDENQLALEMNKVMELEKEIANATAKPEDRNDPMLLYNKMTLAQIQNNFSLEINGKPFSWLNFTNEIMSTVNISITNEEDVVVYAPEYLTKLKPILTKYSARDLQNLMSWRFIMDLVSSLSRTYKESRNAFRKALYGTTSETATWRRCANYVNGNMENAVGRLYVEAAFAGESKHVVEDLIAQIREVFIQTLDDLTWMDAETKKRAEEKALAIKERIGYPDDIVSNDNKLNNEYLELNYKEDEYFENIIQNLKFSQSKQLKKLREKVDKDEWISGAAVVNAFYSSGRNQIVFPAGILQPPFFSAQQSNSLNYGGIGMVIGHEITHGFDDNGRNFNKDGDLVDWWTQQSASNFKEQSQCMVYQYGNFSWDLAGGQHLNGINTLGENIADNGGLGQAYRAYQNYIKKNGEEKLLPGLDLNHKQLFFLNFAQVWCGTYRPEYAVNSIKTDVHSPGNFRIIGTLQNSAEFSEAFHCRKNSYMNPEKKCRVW

As to `CC(=O)SCC(Cc1ccccc1)C(=O)NCC(=O)OCc1ccccc1` (stereo not drawn) [Racecadotril], on plasmatic enkephalinase (1.5 mg/kg oral doses), the “duration of inhibiting effect over plasmatic enkephalinase” value is “about 8 hours” and the “maximum enzymatic inhibition level” value is “about 90%”. Besides, at plasmatic enkephalinase (oral administration), the “start of plasmatic enkephalinase inhibiting effect after administration” value is 30 min and the “time to maximum activity” value is 2 h. In addition, the “delay of maximum activity when administered with food” value on plasmatic enkephalinase (with food) is “about one and half”. Besides, under “in vivo”, the “administered dose distributed in tissues” value is 1% and the mean life result is listed as “about 3 hours”. For the same compound, under “oral administration”, the “time to maximum concentration from administration” value was 60 min. Further, the “bioavailability when administered with food” value (with food) is “not modified”.
